Reference: patent publication US20260209185A1, “SYNTHESIS METHODS AND INTERMEDIATES FOR THE PRODUCTION OF REMIMBRUTINIB” (NOVARTIS AG, priority 2022, published 2026)

What was measured:
[1] = tested on: Salmonella typhimurium tester strain TA97a; experiment: AMES testing (bacterial reverse mutation test, Salmonella/microsome assay), strain TA97a; format: cell-based; conditions: for increase in the number of revertants over the concurrent vehicle controls: strain TA97a; for mutagenicity (overall conclusion): strain TA97a in presence of metabolic activation, criterion 2-fold increase in revertants
Source text: (§1) The Ames assay is a rapid, reliable and economical method for screening compounds for potential genetic activity at the nucleotide level. A large database has been accumulated with this assay, confirming its ability to detect genetically active compounds of most chemical classes with around 80 to 90% sensitivity and specificity.
(§2) With the exception of strain TA102, these strains require biotin as well as histidine for growth. In strain TA102 the critical mutation in the histidine gene is located on a multicopy plasmid pAQ1. This strain is particularly sensitive to the activities of oxidative and cross-linking mutagens. The plasmid derivatives (TA98, TA100, TA97a and TA102) have increased sensitivity to certain mutagens as the pKM101 plasmid codes for an error-prone DNA repair system^(1,3).
(§3) When exposed to a mutagen, some of the bacteria in the treated population, through chemical interaction with the compound, undergo genetic changes which cause them to revert to a non-histidine-requiring state and thus grow in the absence of exogenous histidine. Different tester strains are used because each is mutated by particular chemical classes of compound. A compound that is mutagenic in one strain need not be so in another^(1,3).
(§4) Test item: INT 3, also known as 5-fluoro-2-methyl-3-(4,4,5,5-tetramethyl-1,3,2-dioxaborolan-2-yl)aniline. Vehicle: Di-methyl sulfoxide (DMSO) Purity/Content of drug: 97.95%. Molecular Structure:
(§5) Strains of Salmonella typhimurium used^(4,5,6): TA98, TA100, TA1535, TA97a and TA102. Metabolic activation system^(2): Liver S-9 mix from male rats, Aroclor 1254-pretreated. Per plate, 0.5 mL of 5% S-9 mix was added. Controls: Control treatments comprised additions at the same volume per plate (0.1 mL) as the test item solutions. Negative controls comprised treatments with the chosen vehicle.
(§6) Concentrations tested (Mutaqenicity Study): 50, 158, 501, 1582 and 5000 μg/plate (using all strains+/−S-9). […] Mutagenicity: Data from control treatments confirmed the correct strain and assay functioning, and the data were accepted as valid.
(§7) Acceptance criteria: The assay was considered valid as all the following criteria were met: • 1. Vehicle control counts fell within the normal ranges; • 2. The positive control chemicals induced increases in revertant numbers by 5- to 30-fold for different strains when compared to the concurrent vehicle controls confirming discrimination between different strains, and an active S-9 preparation.
(§8) Evaluation criteria: For valid data, the test item was considered mutagenic in this assay if a concentration related increase in revertant numbers of 2-fold (in strains TA98, TA100, TA1535 or TA97a) or 1.5-fold (in strain TA102) the concurrent vehicle control values was observed. […]

[2] = tested on: Salmonella typhimurium TA98, TA100, TA1535, TA97a and TA102; experiment: AMES testing (bacterial reverse mutation test, Salmonella/microsome assay), all strains; format: cell-based
Source text: as §1, §2, §3, §4, §5, §6, §7, §8

## Cc1c(N)cc(F)cc1B1OC(C)(C)C(C)(C)O1 [INT 3, 5-fluoro-2-methyl-3-(4,4,5,5-tetramethyl-1,3,2-dioxaborolan-2-yl)aniline]
[1]; Experiment 1, 5000 μg/plate, in the presence of metabolic activation (rat liver S-9)
  increase in the number of revertants over the concurrent vehicle controls: 2.3 fold
[1]; Experiment 2, highest test concentration 5000 μg/plate, in presence of metabolic activation (rat liver S-9)
  increase in the number of revertants over the concurrent vehicle controls: 1.8 fold
[1]
  mutagenicity (overall conclusion): mutagenic potential
[1]; listed as INT3
  mutagenicity (overall conclusion): weak mutagenic potential
[2]; any other strain treatments (TA98, TA100, TA1535, TA97a without S-9), 50-5000 μg/plate, +/- S-9
  increase in revertant numbers over the concurrent vehicle controls, other strain treatments: < 2 fold
[2]; preliminary cytotoxicity and mutagenicity test, any strain, presence and absence of metabolic activation, up to 5000 μg/plate
  cytotoxicity to tester strains: did not indicate any cytotoxicity
[2]; strain TA102, 50-5000 μg/plate, +/- S-9
  increase in revertant numbers over the concurrent vehicle controls, strain TA102: < 1.5 fold
[2]; up to highest concentration (5000 μg/plate), presence and absence of metabolic activation, vehicle DMSO
  precipitation of test item: did not precipitate
